Calls of active or inactive are those of the source. No cut-off for these calls is given here.
What was measured:
[1] = biological target: T1, Alkaline phosphatase, tissue-nonspecific isozyme (Bos taurus) (UniProt P09487); assay: Inhibition of bovine liver alkaline phosphatase using p-nitrophenyl phosphate as substrate at 8.7 x 10^-5 M up to 35 mins by spectrophotometry
T1 sequence (whole entry): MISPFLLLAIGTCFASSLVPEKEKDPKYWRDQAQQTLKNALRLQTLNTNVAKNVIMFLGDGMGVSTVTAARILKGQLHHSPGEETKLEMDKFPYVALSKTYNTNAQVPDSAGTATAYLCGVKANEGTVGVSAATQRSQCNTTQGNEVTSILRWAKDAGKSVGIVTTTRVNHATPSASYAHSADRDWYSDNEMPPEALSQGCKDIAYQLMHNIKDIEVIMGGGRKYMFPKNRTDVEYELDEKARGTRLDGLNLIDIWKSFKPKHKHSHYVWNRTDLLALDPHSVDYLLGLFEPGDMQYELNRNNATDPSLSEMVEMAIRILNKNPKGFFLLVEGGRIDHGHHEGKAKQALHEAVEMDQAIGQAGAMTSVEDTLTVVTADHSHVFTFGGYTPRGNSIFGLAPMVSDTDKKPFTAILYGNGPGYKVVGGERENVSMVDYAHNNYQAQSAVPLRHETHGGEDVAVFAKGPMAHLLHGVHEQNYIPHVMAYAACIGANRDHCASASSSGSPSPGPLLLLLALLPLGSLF

[2] = species on record: Bos taurus; assay: Inhibition of bovine placenta alkaline phosphatase using p-nitrophenyl phosphate as substrate at 8.7 x 10^-5 M up to 35 mins by spectrophotometry
[3] = biological target: Intestinal-type alkaline phosphatase (Bos taurus) (UniProt P19111); assay: Inhibition of calf intestine alkaline phosphatase using p-nitrophenyl phosphate as substrate at 8.7 x 10^-5 M up to 35 mins by spectrophotometry
Intestinal-type alkaline phosphatase (Bos taurus), sequence (P19111 20-506 limits assumed): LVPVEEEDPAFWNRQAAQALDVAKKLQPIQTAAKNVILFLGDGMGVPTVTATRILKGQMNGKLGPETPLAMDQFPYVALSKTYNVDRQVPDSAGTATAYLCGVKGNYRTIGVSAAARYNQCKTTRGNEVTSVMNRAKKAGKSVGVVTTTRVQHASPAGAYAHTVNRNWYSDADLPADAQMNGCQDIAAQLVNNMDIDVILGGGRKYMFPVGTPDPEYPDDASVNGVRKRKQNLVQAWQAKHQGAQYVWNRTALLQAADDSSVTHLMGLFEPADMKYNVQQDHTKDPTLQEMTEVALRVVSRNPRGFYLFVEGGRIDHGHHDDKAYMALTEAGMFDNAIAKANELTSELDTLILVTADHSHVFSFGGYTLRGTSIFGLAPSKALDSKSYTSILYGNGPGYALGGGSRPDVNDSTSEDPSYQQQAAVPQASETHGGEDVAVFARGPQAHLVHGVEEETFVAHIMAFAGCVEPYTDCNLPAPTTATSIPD

[4] = biological target: Alkaline phosphatase, placental type (Homo sapiens) (UniProt P05187); assay: Inhibition of human placenta alkaline phosphatase using p-nitrophenyl phosphate as substrate at 8.7 x 10^-5 M up to 35 mins by spectrophotometry
Alkaline phosphatase, placental type (Homo sapiens), sequence (P05187 whole entry): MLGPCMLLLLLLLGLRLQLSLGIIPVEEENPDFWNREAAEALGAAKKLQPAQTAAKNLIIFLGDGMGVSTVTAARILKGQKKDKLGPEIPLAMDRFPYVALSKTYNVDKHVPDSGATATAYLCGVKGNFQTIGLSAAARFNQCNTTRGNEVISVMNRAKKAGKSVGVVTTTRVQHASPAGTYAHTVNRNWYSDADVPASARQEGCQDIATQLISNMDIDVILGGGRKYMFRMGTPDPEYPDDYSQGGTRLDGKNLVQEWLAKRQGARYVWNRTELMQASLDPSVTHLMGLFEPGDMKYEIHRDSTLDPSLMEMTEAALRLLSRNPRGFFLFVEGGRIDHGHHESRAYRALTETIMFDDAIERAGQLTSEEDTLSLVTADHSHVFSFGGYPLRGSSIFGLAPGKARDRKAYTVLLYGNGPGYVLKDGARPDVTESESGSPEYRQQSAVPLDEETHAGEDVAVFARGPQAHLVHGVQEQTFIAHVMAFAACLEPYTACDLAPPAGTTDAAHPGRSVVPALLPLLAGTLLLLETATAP

[5] = biological target: T2, Alkaline phosphatase, tissue-nonspecific isozyme (Homo sapiens) (UniProt P05186); assay: Inhibition of human serum containing 64% liver alkaline phosphatase using p-nitrophenyl phosphate as substrate at 8.7 x 10^-5 M up to 35 mins by spectrophotometry
T2 sequence (whole entry): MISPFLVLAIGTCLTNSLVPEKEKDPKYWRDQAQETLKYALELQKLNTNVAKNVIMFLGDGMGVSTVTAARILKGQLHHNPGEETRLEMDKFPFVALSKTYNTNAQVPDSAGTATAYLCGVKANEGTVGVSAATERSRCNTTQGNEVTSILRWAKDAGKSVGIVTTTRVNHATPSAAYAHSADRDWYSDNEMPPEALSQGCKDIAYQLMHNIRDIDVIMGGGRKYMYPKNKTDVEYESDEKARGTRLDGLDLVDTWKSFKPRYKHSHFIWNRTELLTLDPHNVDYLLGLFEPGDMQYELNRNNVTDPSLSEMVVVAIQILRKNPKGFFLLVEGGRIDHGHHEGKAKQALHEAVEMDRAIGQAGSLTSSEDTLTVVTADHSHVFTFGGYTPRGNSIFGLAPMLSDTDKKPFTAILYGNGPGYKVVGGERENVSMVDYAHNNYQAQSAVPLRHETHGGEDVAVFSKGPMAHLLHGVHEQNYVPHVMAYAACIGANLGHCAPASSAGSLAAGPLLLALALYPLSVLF

[6] = biological target: T2, Alkaline phosphatase, tissue-nonspecific isozyme (Homo sapiens); assay: Inhibition of human serum containing 10% bone alkaline phosphatase using p-nitrophenyl phosphate as substrate at 8.7 x 10^-5 M up to 35 mins by spectrophotometry
[7] = biological target: Intestinal-type alkaline phosphatase (Homo sapiens) (UniProt P09923); assay: Inhibition of human serum containing 26% intestine alkaline phosphatase using p-nitrophenyl phosphate as substrate at 8.7 x 10^-5 M up to 35 mins by spectrophotometry
Intestinal-type alkaline phosphatase (Homo sapiens), sequence (P09923 20-503 limits assumed): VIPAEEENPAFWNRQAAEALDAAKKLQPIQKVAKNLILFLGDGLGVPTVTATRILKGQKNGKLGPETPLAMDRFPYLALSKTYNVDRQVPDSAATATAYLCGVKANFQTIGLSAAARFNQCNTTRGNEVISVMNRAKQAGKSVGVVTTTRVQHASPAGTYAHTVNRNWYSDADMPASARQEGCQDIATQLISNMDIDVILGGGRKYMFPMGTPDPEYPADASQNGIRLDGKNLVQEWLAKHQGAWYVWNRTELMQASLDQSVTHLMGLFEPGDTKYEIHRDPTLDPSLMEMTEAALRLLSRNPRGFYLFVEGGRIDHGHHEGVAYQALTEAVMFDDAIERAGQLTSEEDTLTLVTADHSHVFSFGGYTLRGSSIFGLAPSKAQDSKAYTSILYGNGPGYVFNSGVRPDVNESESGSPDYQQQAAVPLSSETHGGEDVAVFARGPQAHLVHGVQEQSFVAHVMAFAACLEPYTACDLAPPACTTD

[8] = biological target: T2, Alkaline phosphatase, tissue-nonspecific isozyme (Homo sapiens); assay: Inhibition of human serum containing 60% liver alkaline phosphatase using p-nitrophenyl phosphate as substrate at 8.7 x 10^-5 M up to 35 mins by spectrophotometry
[9] = biological target: T2, Alkaline phosphatase, tissue-nonspecific isozyme (Homo sapiens); assay: Inhibition of human serum containing 40% bone alkaline phosphatase using p-nitrophenyl phosphate as substrate at 8.7 x 10^-5 M up to 35 mins by spectrophotometry
[10] = biological target: T2, Alkaline phosphatase, tissue-nonspecific isozyme (Homo sapiens); assay: Inhibition of human serum containing 86% liver alkaline phosphatase using p-nitrophenyl phosphate as substrate at 8.7 x 10^-5 M up to 35 mins by spectrophotometry
[11] = biological target: T2, Alkaline phosphatase, tissue-nonspecific isozyme (Homo sapiens); assay: Inhibition of human serum containing 14% bone alkaline phosphatase using p-nitrophenyl phosphate as substrate at 8.7 x 10^-5 M up to 35 mins by spectrophotometry
[12] = biological target: T2, Alkaline phosphatase, tissue-nonspecific isozyme (Homo sapiens); assay: Inhibition of human serum containing 92% liver alkaline phosphatase using p-nitrophenyl phosphate as substrate at 8.7 x 10^-5 M up to 35 mins by spectrophotometry
[13] = biological target: T2, Alkaline phosphatase, tissue-nonspecific isozyme (Homo sapiens); assay: Inhibition of human serum containing 8% liver alkaline phosphatase using p-nitrophenyl phosphate as substrate at 8.7 x 10^-5 M up to 35 mins by spectrophotometry

Row | SMILES | inhibition [1] | inhibition [2] | inhibition [3] | inhibition [4] | inhibition [5] | inhibition [6] | inhibition [7] | inhibition [8] | inhibition [9] | inhibition [10] | inhibition [11] | inhibition [12] | inhibition [13]
1 | c1ccc([C@@H]2CN3CC[Se]C3=N2)cc1 | inactive | inactive | inactive | inactive | inactive | inactive | inactive | inactive | inactive | inactive | inactive | inactive | inactive
2 | c1ccc([C@H]2CN3CC[Se]C3=N2)cc1 | 76% | 78% | 10% | 0% | 70% | 70% | 70% | 78% | 78% | 63% | 63% | 80% | 80%
3 | c1ccc([C@@H]2CN3CCSC3=N2)cc1 (stereo in doubt; (+)) | inactive | inactive | inactive | inactive | inactive | inactive | inactive | inactive | inactive | inactive | inactive | inactive | inactive
4 | c1ccc([C@@H]2CN3CCSC3=N2)cc1 (stereo in doubt; (-)) | 67% | 75% | 10% | 0% | 65% | 65% | 65% | 71% | 71% | 56% | 56% | 76% | 76%

Reference: ChEMBL document CHEMBL3244014, “Selenium-sulfur analogues. 1. Synthesis and biochemical evaluation of selenotetramisole” (J Med Chem, 1978)
